Legend:
HCT-116 = assay: Inhibitor concentration to reduce HCT 116 cell line (tumor) growth by 50% over 72 h; assay type: functional; details: Homo sapiens, HCT-116, 72 h
[1] = target: Glycogen synthase kinase-3 beta (Homo sapiens, UniProt P49841); assay: Inhibitory concentration for Glycogen synthase kinase-3 beta was determined in the presence of 10 um ATP (Km 10 uM)
[2] = target: Cyclin-dependent kinase 2 (Homo sapiens, UniProt P24941); assay: Inhibitory concentration for Cyclin-dependent kinase 2 was determined in the presence of 100 um ATP (Km 50 uM)

Glycogen synthase kinase-3 beta, sequence (P49841 whole entry): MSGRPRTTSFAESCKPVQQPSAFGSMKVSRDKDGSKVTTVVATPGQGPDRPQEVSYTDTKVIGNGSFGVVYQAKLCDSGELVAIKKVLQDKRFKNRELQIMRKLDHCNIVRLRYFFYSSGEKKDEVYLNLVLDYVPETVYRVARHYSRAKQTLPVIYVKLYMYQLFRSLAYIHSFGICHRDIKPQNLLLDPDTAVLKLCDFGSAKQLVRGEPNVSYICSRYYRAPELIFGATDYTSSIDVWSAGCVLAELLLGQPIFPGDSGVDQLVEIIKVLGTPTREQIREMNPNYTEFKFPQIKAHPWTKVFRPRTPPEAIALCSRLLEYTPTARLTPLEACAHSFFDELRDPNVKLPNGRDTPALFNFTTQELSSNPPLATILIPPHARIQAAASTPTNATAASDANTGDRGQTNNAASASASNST

SMILES	GI50 (HCT-116)	IC50 [1]	IC50 [2]
CC(C)COc1cc(Nc2ccc(S(C)(=O)=O)cc2)n2ncc(C(C)C)c2n1	7800 nM	12000 nM	–
CC(C)c1cnn2c(Nc3ccc(S(=O)(=O)N(C)C)cc3)cc(O[C@H]3CC[C@H](N)CC3)nc12	710 nM	28000 nM	–
N[C@H]1CC[C@H](Nc2cc(Nc3ccc(S(=O)(=O)c4ccccc4)cc3)n3ncc(Br)c3n2)CC1	80 nM	5300 nM	16 nM
CC(C)COc1cc(Nc2ccc(S(=O)(=O)N(C)C)cc2)n2ncc(C(C)C)c2n1	7600 nM	50000 nM	1200 nM
CN(C)S(=O)(=O)c1ccc(Nc2cc(N[C@H]3CC[C@H](N)CC3)nc3c(Br)cnn23)cc1	910 nM	3400 nM	10 nM
CN(C)S(=O)(=O)c1ccc(Nc2cc(N[C@H]3CC[C@H](N)CC3)nc3c(C4CCCC4)cnn23)cc1	–	22000 nM	–
CN(C)S(=O)(=O)c1ccc(Nc2cc(N[C@H]3CC[C@H](N)CC3)nc3c(Cl)cnn23)cc1	2700 nM	5100 nM	8 nM
CCN(CC)[C@H]1CC[C@H](Nc2cc(Nc3ccc(S(=O)(=O)N(C)C)cc3)n3ncc(C(C)C)c3n2)CC1	16000 nM	> 50000 nM	–
N[C@H]1CC[C@H](Nc2cc(Nc3ccc(S(=O)(=O)c4cccs4)cc3)n3ncc(Cl)c3n2)CC1	120 nM	–	11 nM
CC(C)c1cnn2c(Nc3ccc(S(=O)(=O)N(C)C)cc3)cc(N[C@H]3CC[C@H](N)CC3)nc12	580 nM	40000 nM	–
CC(C)c1cnn2c(Nc3ccc(S(=O)(=O)N(C)C)cc3)cc(NC3CCCC(N)C3)nc12 (stereo not drawn)	3400 nM	> 50000 nM	2100 nM
CN(C)S(=O)(=O)c1ccc(Nc2cc(N[C@H]3CC[C@H](N)CC3)nc3c(Br)cnn23)cc1Cl	340 nM	8700 nM	–
CN(C)S(=O)(=O)c1ccc(Nc2cc(N[C@H]3CC[C@H](N)CC3)nc3c(C#N)cnn23)cc1	11000 nM	460 nM	–
CCN[C@H]1CC[C@H](Nc2cc(Nc3ccc(S(=O)(=O)N(C)C)cc3)n3ncc(C(C)C)c3n2)CC1	1200 nM	> 50000 nM	61 nM

— ChEMBL document CHEMBL1141971, “Structure-guided design of pyrazolo[1,5-a]pyrimidines as inhibitors of human cyclin-dependent kinase 2” (Bioorg Med Chem Lett, 2005)
